Measured values published in PMC4823954, “From fighting depression to conquering tumors: a novel tricyclic thiazepine compound as a tubulin polymerization inhibitor” (Cell Death & Disease, 2016).

How the values were obtained:
H460TaxR = experiment: Cell viability assay (sulforhodamine B); assay type: cell-based, human; settings: for Resistance Folds: EC50 in H460TaxR cells divided by EC50 in H460 cells; for EC50: Homo sapiens, H460/TaxR
Procedure: (§1) All biological reagents and solvents were obtained from commercial suppliers and used as recommended. The human NSCLC cell line H460 and P-gp-overexpressing drug-resistant cell line H460TaxR were cultured in RPMI-1640 medium supplemented with 10% fetal bovine serum, 100 units/ml penicillin and […] streptomycin. The NHFB cell line NHFB was cultured in DMEM with the same supplements. All cells were maintained in a 37 °C incubator with 95% humidity and 5% CO2.
(§2) The cell viability was determined using the sulforhodamine B assay.[64] In brief, cells (4000 cells in 100 μl medium) were seeded in 96-well culture plates and incubated for 24 h. The cells were treated with the compounds or with an equal volume (0.1%) of DMSO for 72 h. The cell viability was calculated using the following formula: cell viability=Atreatment/Acontrol. The EC50 values were determined using the Sigma Plot 10.0 software package (Systat Software Inc., San Jose, CA, USA).

H460 = experiment: Cell viability assay (sulforhodamine B); assay type: cell-based, human; settings: Homo sapiens
Procedure: as §1, §2

NHFB = experiment: Cell viability assay (sulforhodamine B); assay type: cell-based; settings: Fibroblast; NHFB normal human fibroblasts, 72 h
Procedure: as §1, §2

H460 xenograft = experiment: NSCLC xenograft tumor growth inhibition; assay type: in vivo; settings: H460 xenografted mice; PTX 10 mg/kg i.v., four doses every other day
Procedure: (§3) (a) The tumor volume was measured every other day. […] (b) Blood biochemical and hematological analyses.

H460TaxR xenograft = experiment: NSCLC xenograft tumor growth inhibition; assay type: in vivo; settings: H460TaxR xenografted mice; PTX 10 mg/kg i.v., four doses every other day
Procedure: as §3

[1] = toxicity in xenografted mice; settings: end of experiment, hematoxylin–eosin
[2] = H460TaxR(+Rev), Reversan (P-gp inhibitor)

Row | EC50 (H460TaxR; [2]) [nM] | EC50 (H460; NCI-H460, 72 h, H460 cells, 72 h) [nM] | Structure (SMILES) | Resistance Folds (H460TaxR) | EC50 (H460TaxR; 72 h, H460TaxR cells) [nM] | EC50 (H460TaxR; H460TaxR cells) [nM] | EC50 (H460; NCI-H460, H460 cells) [nM] | EC50 (NHFB) [nM] | tumor growth inhibition, TGI (H460 xenograft) [%] | tumor growth inhibition, TGI (H460TaxR xenograft) [%] | histopathological examination of the major organs [1]
1 | 170 ± 100 | 110 ± 70 | COc1cccc2c1C(=O)c1c(O)c3c(c(O)c1C2=O)C[C@@](O)(C(=O)CO)C[C@@H]3O[C@H]1C[C@H](N)[C@H](O)[C@H](C)O1 [DOX, Doxorubicin] | 18.6 | 2050 ± 690 | – | – | – | – | – | –
2 | 9.1 ± 3.3 | – | CC[C@]1(O)C[C@H]2CN(CCc3c([nH]c4ccccc34)[C@@](C(=O)OC)(c3cc4c(cc3OC)N(C=O)[C@H]3[C@@](O)(C(=O)OC)[C@H](OC(C)=O)[C@]5(CC)C=CCN6CC[C@]43[C@@H]65)C2)C1 [VCR, Vincristine] | 78.4 | – | 1010 ± 101 | 12.9 ± 5.2 | – | – | – | –

Row | Structure (SMILES) | EC50 (H460TaxR; [2]) [nM] | EC50 (H460; NCI-H460, 72 h, H460 cells, 72 h) [nM] | Resistance Folds (H460TaxR) | EC50 (H460TaxR; 72 h, H460TaxR cells) [nM] | EC50 (H460TaxR; H460TaxR cells) [nM] | EC50 (H460; NCI-H460, H460 cells) [nM] | EC50 (NHFB) [nM] | tumor growth inhibition, TGI (H460 xenograft) [%] | tumor growth inhibition, TGI (H460TaxR xenograft) [%] | histopathological examination of the major organs [1]
3 | CC(=O)O[C@H]1C(=O)[C@@]2(C)[C@H]([C@H](OC(=O)c3ccccc3)[C@]3(O)C[C@H](OC(=O)[C@H](O)[C@@H](NC(=O)c4ccccc4)c4ccccc4)C(C)=C1C3(C)C)[C@]1(OC(C)=O)CO[C@@H]1C[C@@H]2O [PTX, paclitaxel] | 4.4 ± 2.8 | – | 165.0 | 822 | 990 ± 190 | 6 ± 2.1 | 51 | 66.2 | 42.0 | Hepatocyte necrosis
